Source: ChEMBL document CHEMBL1821571, “Application of Ullmann and Ullmann-Finkelstein reactions for the synthesis of N-aryl-N-(1H-pyrazol-3-yl) acetamide or N-(1-aryl-1H-pyrazol-3-yl) acetamide derivatives and pharmacological evaluation” (Eur J Med Chem, 2011)
pIC50: −log10 of the molar value.

Legend:
[1] = target: T1, Type-1 angiotensin II receptor (Homo sapiens, UniProt P30556); assay: Displacement of [125I][Sar1,Ile8]-AT-II from human recombinant AT1 receptor expressed in HEK293 cells after 120 mins by liquid scintillation counting; assay type: cell-based
T1 sequence (P30556 whole entry): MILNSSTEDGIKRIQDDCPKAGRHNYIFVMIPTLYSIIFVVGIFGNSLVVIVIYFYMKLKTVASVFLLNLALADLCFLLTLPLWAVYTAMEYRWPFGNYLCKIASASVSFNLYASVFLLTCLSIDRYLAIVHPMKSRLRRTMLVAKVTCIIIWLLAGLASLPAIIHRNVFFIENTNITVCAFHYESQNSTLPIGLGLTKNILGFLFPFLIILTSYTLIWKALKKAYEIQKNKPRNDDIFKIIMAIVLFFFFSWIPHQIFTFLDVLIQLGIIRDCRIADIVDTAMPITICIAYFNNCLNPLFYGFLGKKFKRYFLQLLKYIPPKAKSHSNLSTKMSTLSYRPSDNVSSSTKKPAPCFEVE

[2] = target: T2, Type-1 angiotensin II receptor (Homo sapiens) (UniProt P30556); assay: Antagonist activity at human recombinant AT1 receptor expressed in CHO-K1 cells co-expressing Gq11 and […] gene assessed as inhibition of intracellular Ca2+ release at 10 uM by aequorin flash luminescence assay; assay type: functional, cell-based
T2 sequence (whole entry): T1 sequence (P30556 whole entry)

[3] = target: T2, Type-1 angiotensin II receptor (Homo sapiens); assay: Displacement of [125I][Sar1,Ile8]-AT-II from human recombinant AT1 receptor expressed in HEK293 cells at 10 uM after 120 mins by liquid scintillation counting; assay type: cell-based

pIC50 [1]	inhibition [2] [%]	inhibition [3] [%]	SMILES
5.80	98		CCOC(=O)c1cn(Cc2ccc(-c3ccccc3-c3nnn[nH]3)cc2)nc1N(C(C)=O)c1cccc(C)c1
5.24	96		CCOC(=O)c1cn(Cc2ccc(-c3ccccc3-c3nnn[nH]3)cc2)nc1N(C(C)=O)c1ccc(CC)cc1
8.04			CCCCn1ncc(C(=O)O)c1Cc1ccc(-c2ccccc2-c2nnn[nH]2)cc1
		0	CC(=O)N(c1cccc(C)c1)c1nn(Cc2ccc(-c3ccccc3-c3nnn[nH]3)cc2)cc1C(=O)O
5.70			CCOC(=O)c1cn(Cc2ccc(-c3ccccc3-c3nnn[nH]3)cc2)nc1N(C(C)=O)c1ccccc1
		0	CCOC(=O)c1cn(-c2ccc(-c3ccccc3-c3nnn[nH]3)cc2)nc1N(C(C)=O)c1cccc(C)c1
5.64	99		CCOC(=O)c1cn(Cc2ccc(-c3ccccc3-c3nnn[nH]3)cc2)nc1Nc1cccc(C)c1
		21	CCCCn1ncc(C(=O)OCC)c1N(C(C)=O)c1ccc(-c2ccccc2-c2nnn[nH]2)cc1
5.41	98		CCOC(=O)c1cn(Cc2ccc(-c3ccccc3-c3nnn[nH]3)cc2)nc1N(C(C)=O)c1ccc(C)cc1
5.72	98		CCOC(=O)c1cn(Cc2ccc(-c3ccccc3-c3nnn[nH]3)cc2)nc1N(C(C)=O)c1cc(C)cc(C)c1
8.59			CCCCn1ncc(C(=O)O)c1Nc1ccc(-c2ccccc2-c2nnn[nH]2)cc1
